Experimental findings from patent US20240317777A1, “NOVEL MACROCYCLIC AMINOPYRAZOLE COMPOUNDS AS CDK2 INHIBITORS” (Accutar Biotechnology Inc., priority 2023, published 2024) are described below.

Molecules are shown by their SMILES. Where two headings read alike, the source gives them in different places.

The target in one assay is CDK4-CYCLIN D1 (Homo sapiens, UniProt P11802). Put plainly: CDK protein kinase inhibition by ADP-Glo assay, CDK4-CYCLIN D1. It counts as biochemical. Particulars: for IC50: ADP-Glo, 1000 μM ATP, read-out: CDK4-CYCLIND1, IC50; for CDK2 Fold selectivity, CDK4: CDK2 versus CDK4. Put shortly: (§1)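 Human CDK/cyclin complexes phosphorylated peptide substrates at 22° C in 100 mM HEPES pH 7.5 with 5 mM MgCl2, 1 mM DTT, 0.1% BSA, 0.01% Triton X-100 and 1000 μM ATP (1% DMSO). ADP formed was detected by ADP-Glo luminescence.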

The next assay addresses CDK2-CYCLIN E1 (Homo sapiens, UniProt P24941). Nature of the assay: CDK protein kinase inhibition by ADP-Glo assay, CDK2-CYCLIN E1. It is filed as biochemical. Particulars: ADP-Glo, 1000 μM ATP, read-out: CDK2-CYCLINE, IC50. Put shortly:
as §1

For another assay, the target named is CDK6-CYCLIN D3 (Homo sapiens, UniProt Q00534). Put plainly: CDK protein kinase inhibition by ADP-Glo assay, CDK6-CYCLIN D3. It counts as biochemical. The following applies: for IC50: ADP-Glo, 1000 μM ATP, read-out: CDK6-CYCLIND3, IC50; for CDK2 Fold selectivity, CDK6: CDK2 versus CDK6. Put shortly: as §1
In assay [1] the test system is Phospho-Rb (Ser807/811) in OVCAR3 cells. Nature of the assay: Phospho-Rb expression inhibition in OVCAR3 cells quantified by In Cell Western. Particulars: Homo sapiens, OVCAR-3, 24 hours, read-out: OVCAR-3 pRb IC50. It is filed as cell-based. Put shortly: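 In-cell western: after 24 h compound exposure at 37° C, fixed OVCAR3 cells co-stained for pRb Ser807/811 (800 nm channel) and total Rb (680 nm channel), imaged by LI-COR Odyssey.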

The target in the next assay is CDK9-CYCLIN T1 (Homo sapiens, UniProt P50750). Nature of the assay: CDK protein kinase inhibition by ADP-Glo assay, CDK9-CYCLIN T1. It counts as biochemical. The following applies: for IC50: ADP-Glo, 1000 μM ATP, read-out: CDK9-CYCLINT1, IC50; for CDK2 Fold selectivity, CDK9: CDK2 versus CDK9. The gist of the method:
as §1

The target in a further assay is CDK1-CYCLIN B (Homo sapiens, UniProt P06493). Put plainly: CDK protein kinase inhibition by ADP-Glo assay, CDK1-CYCLIN B. It counts as biochemical. Particulars: for IC50: ADP-Glo, 1000 μM ATP, read-out: CDK1-CYCLINB, IC50; for CDK2 Fold selectivity, CDK1: CDK2 versus CDK1. Put shortly: as §1
Assay [2] concerns CCNE1-amplified OVCAR3 cells. Nature of the assay: Cell growth inhibition of CCNE1-amplified OVCAR3 cells (CellTiter-Glo). It counts as cell-based. The following applies: Homo sapiens, OVCAR-3, 144 h, 6 days. Put shortly: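 Growth read-out was CellTiter-Glo luminescence, taken after 10 min at room temperature at the end of a 6-day compound exposure at 37 °C. Compounds were diluted from DMSO stocks across various concentrations.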

The subject of a further assay is CCNE1-normal SKOV3 cells. Nature of the assay: Cell growth inhibition of CCNE1-normal SKOV3 cells (CellTiter-Glo). The following applies: Homo sapiens, SK-OV-3, 144 h, 6 days. It counts as cell-based. Put shortly:
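Growth was measured by CellTiter-Glo luminescence after 6 days' compound exposure at 37 °C. Cells were plated one day before dosing at 1000 per well in medium with 10% FBS, and compounds were diluted from DMSO stocks.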

Sequence of CDK1-CYCLIN B (P06493 whole entry): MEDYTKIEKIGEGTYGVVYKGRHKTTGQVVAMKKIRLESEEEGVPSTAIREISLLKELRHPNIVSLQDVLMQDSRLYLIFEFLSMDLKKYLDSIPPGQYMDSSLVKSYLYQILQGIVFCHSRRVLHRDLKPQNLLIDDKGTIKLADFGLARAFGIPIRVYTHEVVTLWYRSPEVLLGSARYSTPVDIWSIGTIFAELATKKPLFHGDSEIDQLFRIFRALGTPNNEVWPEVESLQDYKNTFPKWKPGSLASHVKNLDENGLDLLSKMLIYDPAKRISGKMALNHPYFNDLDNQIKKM
Sequence of CDK1-CYCLIN B (P14635 whole entry partner): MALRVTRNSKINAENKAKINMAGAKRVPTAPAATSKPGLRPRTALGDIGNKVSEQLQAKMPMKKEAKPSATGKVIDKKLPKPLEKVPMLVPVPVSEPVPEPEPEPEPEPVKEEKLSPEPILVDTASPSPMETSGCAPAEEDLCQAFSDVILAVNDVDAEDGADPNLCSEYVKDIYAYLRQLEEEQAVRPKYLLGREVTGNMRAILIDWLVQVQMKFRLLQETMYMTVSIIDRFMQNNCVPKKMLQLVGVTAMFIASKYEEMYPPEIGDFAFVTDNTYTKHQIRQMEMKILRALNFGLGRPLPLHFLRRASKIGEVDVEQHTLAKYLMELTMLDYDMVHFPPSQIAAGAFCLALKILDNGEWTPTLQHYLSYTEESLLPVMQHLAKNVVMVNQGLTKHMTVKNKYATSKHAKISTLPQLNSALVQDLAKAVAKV
Sequence of CDK9-CYCLIN T1 (P50750 whole entry): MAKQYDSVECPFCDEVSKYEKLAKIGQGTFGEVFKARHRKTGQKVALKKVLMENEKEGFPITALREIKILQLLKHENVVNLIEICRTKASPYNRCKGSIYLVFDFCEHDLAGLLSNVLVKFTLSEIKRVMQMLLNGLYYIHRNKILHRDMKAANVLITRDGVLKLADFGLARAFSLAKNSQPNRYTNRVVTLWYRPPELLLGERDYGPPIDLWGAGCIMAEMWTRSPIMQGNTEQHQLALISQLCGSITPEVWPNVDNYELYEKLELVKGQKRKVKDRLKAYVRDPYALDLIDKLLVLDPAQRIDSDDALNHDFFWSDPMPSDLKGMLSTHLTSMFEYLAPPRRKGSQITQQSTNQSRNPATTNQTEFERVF
Sequence of CDK9-CYCLIN T1 (O60563 whole entry partner): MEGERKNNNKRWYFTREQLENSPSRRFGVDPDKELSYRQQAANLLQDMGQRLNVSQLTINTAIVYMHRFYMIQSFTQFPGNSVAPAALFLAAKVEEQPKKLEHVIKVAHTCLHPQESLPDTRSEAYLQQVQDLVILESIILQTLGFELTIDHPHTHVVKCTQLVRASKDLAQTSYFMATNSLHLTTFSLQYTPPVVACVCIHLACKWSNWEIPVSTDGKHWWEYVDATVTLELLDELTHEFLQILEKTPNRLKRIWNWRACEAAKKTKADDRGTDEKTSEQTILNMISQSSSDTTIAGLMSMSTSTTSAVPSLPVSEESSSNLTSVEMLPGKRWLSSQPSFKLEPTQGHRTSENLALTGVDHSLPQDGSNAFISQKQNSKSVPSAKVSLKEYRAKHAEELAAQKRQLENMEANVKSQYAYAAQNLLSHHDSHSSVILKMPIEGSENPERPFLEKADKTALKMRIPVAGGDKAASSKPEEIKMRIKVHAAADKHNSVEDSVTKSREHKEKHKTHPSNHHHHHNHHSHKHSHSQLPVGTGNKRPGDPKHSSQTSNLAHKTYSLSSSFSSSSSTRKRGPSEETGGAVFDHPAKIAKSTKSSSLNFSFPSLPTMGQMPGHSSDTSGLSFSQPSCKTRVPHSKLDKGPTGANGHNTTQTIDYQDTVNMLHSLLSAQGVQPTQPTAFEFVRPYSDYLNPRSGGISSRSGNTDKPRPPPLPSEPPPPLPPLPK
Sequence of CDK4-CYCLIN D1 (P11802 whole entry): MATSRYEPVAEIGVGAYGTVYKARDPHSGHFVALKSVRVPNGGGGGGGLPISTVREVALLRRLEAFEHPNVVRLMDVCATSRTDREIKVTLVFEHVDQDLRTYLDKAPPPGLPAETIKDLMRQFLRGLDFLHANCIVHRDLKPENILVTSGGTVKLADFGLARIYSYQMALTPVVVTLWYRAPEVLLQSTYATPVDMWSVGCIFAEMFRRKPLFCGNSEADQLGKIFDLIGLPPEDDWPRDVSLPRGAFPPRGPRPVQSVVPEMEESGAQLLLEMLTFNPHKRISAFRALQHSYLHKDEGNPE
Sequence of CDK4-CYCLIN D1 (P24385 whole entry partner): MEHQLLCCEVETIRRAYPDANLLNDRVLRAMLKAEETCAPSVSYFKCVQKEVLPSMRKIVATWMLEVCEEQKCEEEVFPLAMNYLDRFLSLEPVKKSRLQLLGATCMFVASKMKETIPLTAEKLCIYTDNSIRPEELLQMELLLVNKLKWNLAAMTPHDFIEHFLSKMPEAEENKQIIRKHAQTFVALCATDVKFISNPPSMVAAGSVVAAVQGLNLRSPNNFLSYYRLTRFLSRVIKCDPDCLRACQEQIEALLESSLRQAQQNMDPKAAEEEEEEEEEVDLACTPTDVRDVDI
Sequence of CDK6-CYCLIN D3 (Q00534 whole entry): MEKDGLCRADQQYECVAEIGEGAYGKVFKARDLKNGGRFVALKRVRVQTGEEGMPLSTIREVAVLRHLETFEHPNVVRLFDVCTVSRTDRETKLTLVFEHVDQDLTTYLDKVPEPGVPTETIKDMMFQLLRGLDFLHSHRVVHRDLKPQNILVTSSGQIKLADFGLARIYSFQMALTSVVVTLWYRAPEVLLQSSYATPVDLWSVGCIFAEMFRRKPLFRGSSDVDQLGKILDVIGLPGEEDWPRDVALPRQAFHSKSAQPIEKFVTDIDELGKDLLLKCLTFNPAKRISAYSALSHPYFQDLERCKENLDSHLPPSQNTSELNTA
Sequence of CDK6-CYCLIN D3 (P30281 whole entry partner): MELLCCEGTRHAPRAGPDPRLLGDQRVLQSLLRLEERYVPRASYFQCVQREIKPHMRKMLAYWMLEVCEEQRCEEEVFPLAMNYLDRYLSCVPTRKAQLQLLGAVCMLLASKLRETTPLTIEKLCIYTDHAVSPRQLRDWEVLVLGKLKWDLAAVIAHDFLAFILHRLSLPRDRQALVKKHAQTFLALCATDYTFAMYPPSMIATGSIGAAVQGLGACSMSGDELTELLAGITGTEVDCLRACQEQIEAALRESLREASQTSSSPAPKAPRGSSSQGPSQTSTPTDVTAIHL

Consider `C[C@@H]1CC[C@H](C)Oc2cncc(c2)Nc2cc(n[nH]2)[C@H]2CC[C@H](C2)OC(=O)N1` [Compound 152, (1^1S,1^3R,6S,9R,Z)-6,9-dimethyl-2^1H-5,12-dioxa-3,10-diaza-4(3,5)-pyridina-2(3,5)-pyrazola-1(1,3)-cyclopentanacyclododecaphan-11-one], for which the concentration for half-maximal inhibition (IC50) on CDK4-CYCLIN D1 (Table 21) is 50 to 100 nM; on CDK2-CYCLIN E1 (Table 21) it was ≤ 10 nM; on CDK6-CYCLIN D3 (Table 21) it was 50 to 100 nM; in assay [1] it was 2 to 10 nM; on CDK9-CYCLIN T1 (Table 21) it was 100 to 500 nM; at CDK1-CYCLIN B (Table 21), 10 to 50 nM. Besides, the IC50 in assay [2] fell in the range of 10 to 50 nM; in the assay with CCNE1-normal SKOV3 cells it was 250 to 1250 nM. In addition, the “CDK2 Fold selectivity, CDK4” value on CDK4-CYCLIN D1 (Table 22) is “D (D, >20 and ≤50)”. For the same molecule, the “CDK2 Fold selectivity, CDK6” value on CDK6-CYCLIN D3 (Table 22) is “E (E, <20)”. Also, the “CDK2 Fold selectivity, CDK9” value at CDK9-CYCLIN T1 (Table 22) was “D (D, >20 and ≤50)”. Besides, the “CDK2 Fold selectivity, CDK1” value on CDK1-CYCLIN B (Table 22) was “E (E, <20)”.
For `C[C@H]1CCCNC(=O)O[C@@H]2CC[C@@H](C2)c2cc([nH]n2)Nc2cnnc(c2)O1` [Compound 155, (1^1S,1^3R,6S,Z)-6-methyl-2^1H-5,12-dioxa-3,10-diaza-4(5,3)-pyridazina-2(3,5)-pyrazola-1(1,3)-cyclopentanacyclododecaphan-11-one], the half-maximal inhibitory concentration (IC50) is 100 to 500 nM on CDK4-CYCLIN D1 (Table 25); ≤ 10 nM at CDK2-CYCLIN E1 (Table 25); 100 to 500 nM at CDK6-CYCLIN D3 (Table 25); 10 to 50 nM in assay [1]; > 500 nM on CDK9-CYCLIN T1 (Table 25); 10 to 50 nM at CDK1-CYCLIN B (Table 25). Moreover, the half-inhibitory concentration (IC50) in assay [2] is 50 to 250 nM; in the assay on CCNE1-normal SKOV3 cells, > 1250 nM. The “CDK2 Fold selectivity, CDK4” value at CDK4-CYCLIN D1 (Table 26) was “D (D, >20 and ≤50)”. Besides, on CDK6-CYCLIN D3 (Table 26), the “CDK2 Fold selectivity, CDK6” value is “D (D, >20 and ≤50)”. Moreover, the “CDK2 Fold selectivity, CDK9” value at CDK9-CYCLIN T1 (Table 26) was “B (B, >100 and ≤500)”. The “CDK2 Fold selectivity, CDK1” value on CDK1-CYCLIN B (Table 26) is listed as “E (E, <20)”.
Consider `C[C@H]1CCCNC(=O)O[C@@H]2CC[C@@H](C2)c2cc([nH]n2)Nc2cccc(c2)O1` [Compound 157, (1^1S,1^3R,6S,Z)-6-methyl-2^1H-5,12-dioxa-3,10-diaza-2(3,5)-pyrazola-4(1,3)-benzena-1(1,3)-cyclopentanacyclododecaphan-11-one], for which the IC50 was 100 to 500 nM on CDK4-CYCLIN D1 (Table 21); ≤ 10 nM at CDK2-CYCLIN E1 (Table 21); 100 to 500 nM at CDK6-CYCLIN D3 (Table 21); 10 to 50 nM in assay [1]; 100 to 500 nM on CDK9-CYCLIN T1 (Table 21); 50 to 100 nM on CDK1-CYCLIN B (Table 21). The IC50 in assay [2] lay within 10 to 50 nM; with CCNE1-normal SKOV3 cells, 250 to 1250 nM. Moreover, on CDK4-CYCLIN D1 (Table 22), the “CDK2 Fold selectivity, CDK4” value was “D (D, >20 and ≤50)”. Further, the “CDK2 Fold selectivity, CDK6” value on CDK6-CYCLIN D3 (Table 22) is “D (D, >20 and ≤50)”. The “CDK2 Fold selectivity, CDK9” value on CDK9-CYCLIN T1 (Table 22) is “C (C, >50 and ≤100)”. In addition, the “CDK2 Fold selectivity, CDK1” value at CDK1-CYCLIN B (Table 22) is given as “E (E, <20)”.
Take `O=C1NCCCO[C@@H](C(F)(F)F)c2cc(ccn2)Nc2cc(n[nH]2)[C@H]2CC[C@H](C2)O1` [Compound 161, (1^1S,1^3R,5R,Z)-5-(trifluoromethyl)-2^1H-6,12-dioxa-3,10-diaza-4(4,2)-pyridina-2(3,5)-pyrazola-1(1,3)-cyclopentanacyclododecaphan-11-one]: the IC50 is 10 to 50 nM on CDK4-CYCLIN D1 (Table 21); ≤ 10 nM on CDK2-CYCLIN E1 (Table 21); 10 to 50 nM at CDK6-CYCLIN D3 (Table 21); ≤ 2 nM in assay [1]; 10 to 50 nM on CDK9-CYCLIN T1 (Table 21); ≤ 10 nM at CDK1-CYCLIN B (Table 21). Also, the IC50 is ≤ 2 nM in assay [2] and 50 to 250 nM in the assay with CCNE1-normal SKOV3 cells. Further, at CDK4-CYCLIN D1 (Table 22), the “CDK2 Fold selectivity, CDK4” value was “E (E, <20)”. Besides, the “CDK2 Fold selectivity, CDK6” value on CDK6-CYCLIN D3 (Table 22) was “E (E, <20)”. For the same molecule, the “CDK2 Fold selectivity, CDK9” value at CDK9-CYCLIN T1 (Table 22) was “E (E, <20)”. Further, the “CDK2 Fold selectivity, CDK1” value at CDK1-CYCLIN B (Table 22) is “E (E, <20)”.
